Experimental findings from patent US11066357B2, “Benzoannulene derivatives as antiviral agents” (Southern Research Institute, priority 2017, dated 2021) are described below.

One data set concerns CHIKV. Kind of data set: antiviral activity (EC50), Table 1. The following applies: Chikungunya virus. The class given is cell-based.
Data set [1] can be described thus: cytotoxicity (CC50), Table 1.

Molecules are shown by their SMILES. pEC50: −log10 of the molar value. Bounds are passed on as bounds.

For `COc1cc2c(cc1C(=O)Nc1cccnc1SC)CCCCC2` [Compound 34, 3-methoxy-N-(2-(methylthio)pyridin-3-yl)-6,7,8,9-tetrahydro-5H-benzo[7]annulene-2-carboxamide], the pEC50 in the data set on CHIKV was less than 4.40. Besides, the CC50 in data set [1] is greater than 40 µM.

As to `CCn1ccc(NC(=O)c2cc3c(cc2OC)CCCCC3)n1` [Compound 35, N-(1-ethyl-1H-pyrazol-3-yl)-3-methoxy-6,7,8,9-tetrahydro-5H-benzo[7]annulene-2-carboxamide], the pEC50 in the data set on CHIKV was 4.76. The compound also had a CC50 in data set [1] greater than 40 µM.

Take `COc1nc2c(cc1C(=O)Nc1ccc(C(C)(C)C)cc1)CCCCC2` [Compound 36, N-(4-(tert.-butyl)phenyl)-2-methoxy-6,7,8,9-tetrahydro-5H-cyclohepta[b]pyridine-3-carboxamide]: the pEC50 with CHIKV is 5.77. This compound registered a half-maximal cytotoxic concentration (CC50) in data set [1] greater than 40 µM.

The compound `COc1nc2c(cc1C(=O)Nc1ccc(C(C)(C)C)cn1)CCCCC2` [Compound 37, N-(5-(tert.-butyl)pyridin-2-yl)-2-methoxy-6,7,8,9-tetrahydro-5H-cyclohepta[b]pyridine-3-carboxamide] gave a pEC50 in the data set with CHIKV of 4.87. This compound also had a 50% cytotoxic concentration (CC50) in data set [1] greater than 40 µM.

On to `COc1nc2c(cc1C(=O)Nc1ncc(C(C)(C)C)cn1)CCCCC2` [Compound 38, N-(5-(tert.-butyl)pyrimidin-2-yl)-2-methoxy-6,7,8,9-tetrahydro-5H-cyclohepta[b]pyridine-3-carboxamide], for which the pEC50 in the data set with CHIKV was 4.71. In data set [1], this compound showed a half-maximal cytotoxic concentration (CC50) greater than 40 µM.

`CCn1nc(NC(=O)c2cc3c(nc2OC)CCCCC3)cc1C` [Compound 39, N-(1-ethyl-5-methyl-1H-pyrazol-3-yl)-2-methoxy-6,7,8,9-tetrahydro-5H-cyclohepta[b]pyridine-3-carboxamide] showed a pEC50 in the data set on CHIKV of 4.51. This compound showed a CC50 in data set [1] greater than 40 µM.

`COc1nc2c(cc1C(=O)Nc1ccc(C(C)(C)C(=O)O)cc1)CCCCC2` [Compound 40, 2-(4-(2-methoxy-6,7,8,9-tetrahydro-5H-cyclohepta[b]pyridine-3-carboxamido)phenyl)-2-methylpropanoic acid]: in the data set with CHIKV, the pEC50 is less than 4.40. Moreover, the cytotoxic concentration (CC50) in data set [1] is greater than 40 µM.

The pEC50 is −log10 of the EC50, conventionally taken in molar units. High values mean a small EC50, low ones a large EC50. What is called CC50 is the concentration that lowers cell viability or growth by half. Lower therefore signals greater toxicity to the cells.
